The values that follow are results of earlier work, collected in patent US8664239B2, “Tacrolimus for improved treatment of transplant patients” (Veloxis Pharmaceuticals A/S, priority 2007, dated 2014).

Read-outs that look alike come from different tables or passages of the source. Some results are limits rather than exact numbers.

Test in series [1]: not given
The source holds these as a separate data set.

`C=CC[C@@H]1/C=C(\C)C[C@H](C)C[C@H](OC)[C@H]2O[C@@](O)(C(=O)C(=O)N3CCCC[C@H]3C(=O)O[C@H](/C(C)=C/[C@@H]3CC[C@@H](O)[C@H](OC)C3)[C@H](C)[C@@H](O)CC1=O)[C@H](C)C[C@@H]2OC` [Tacrolimus]: the solubility entry was “very soluble” (in chloroform), “freely soluble” (in ethanol), “very soluble” (in methanol) and “practically insoluble” (in water). The bioavailability in series [1] (after oral administration) was not above 20%. Further, the “mean time-to-peak concentration (tmax)” value in series [1] (oral administration, healthy subjects or kidney or liver transplanted patients) is 1 to 2 h.

In general, bioavailability refers to dose-corrected exposure relative to a reference, in per cent.
